The source of these data is patent US12281126B2, “Inhibitors of cyclin-dependent kinase 7 and uses thereof” (Dana-Farber Cancer Institute, Inc., priority 2018, dated 2025).

What all share (type): biochemical
The target in one experiment is CDK2 (Homo sapiens (Human), UniProt P24941). The experiment is described as follows: Invitrogen kinase assay, inhibition of CDK2. The conditions noted are these: co-factor cyclin A; read-out: IC50 against CDK2. How it is done:
(§1) Compounds of the disclosure were assayed using Invitrogen CDK7 assay against a variety of kinases. Exemplary results are presented as IC50 values (see Table 1 and Table 2). The co-factors used for each kinase in the assays were as follows: CDK7: cyclin H and MNAT1; CDK2: cyclin A; CDK9: cyclin T1.

In another experiment the target is CDK7 (Homo sapiens (Human), UniProt P50613). The experiment is described as follows: Invitrogen CDK7 assay, inhibition of CDK7. The conditions noted are these: co-factors cyclin H and MNAT1; read-out: IC50 against CDK7. How it is done:
as §1

In a further experiment the target is CDK9 (Homo sapiens (Human), UniProt P50750). The experiment is described as follows: Invitrogen kinase assay, inhibition of CDK9. The conditions noted are these: co-factor cyclin T1; read-out: IC50 against CDK9. How it is done:
as §1

Chain of CDK9 (P50750 whole entry): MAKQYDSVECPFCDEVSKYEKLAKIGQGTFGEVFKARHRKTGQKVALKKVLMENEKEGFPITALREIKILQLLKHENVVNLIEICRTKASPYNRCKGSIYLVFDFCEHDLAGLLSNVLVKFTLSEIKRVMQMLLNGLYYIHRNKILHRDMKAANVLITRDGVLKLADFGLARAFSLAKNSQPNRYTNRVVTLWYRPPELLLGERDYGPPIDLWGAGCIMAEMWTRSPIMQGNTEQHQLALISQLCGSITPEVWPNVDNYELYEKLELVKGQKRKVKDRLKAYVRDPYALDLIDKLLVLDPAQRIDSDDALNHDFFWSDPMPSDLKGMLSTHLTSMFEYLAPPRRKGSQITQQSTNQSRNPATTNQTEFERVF
Chain of CDK9 (O60563 whole entry partner): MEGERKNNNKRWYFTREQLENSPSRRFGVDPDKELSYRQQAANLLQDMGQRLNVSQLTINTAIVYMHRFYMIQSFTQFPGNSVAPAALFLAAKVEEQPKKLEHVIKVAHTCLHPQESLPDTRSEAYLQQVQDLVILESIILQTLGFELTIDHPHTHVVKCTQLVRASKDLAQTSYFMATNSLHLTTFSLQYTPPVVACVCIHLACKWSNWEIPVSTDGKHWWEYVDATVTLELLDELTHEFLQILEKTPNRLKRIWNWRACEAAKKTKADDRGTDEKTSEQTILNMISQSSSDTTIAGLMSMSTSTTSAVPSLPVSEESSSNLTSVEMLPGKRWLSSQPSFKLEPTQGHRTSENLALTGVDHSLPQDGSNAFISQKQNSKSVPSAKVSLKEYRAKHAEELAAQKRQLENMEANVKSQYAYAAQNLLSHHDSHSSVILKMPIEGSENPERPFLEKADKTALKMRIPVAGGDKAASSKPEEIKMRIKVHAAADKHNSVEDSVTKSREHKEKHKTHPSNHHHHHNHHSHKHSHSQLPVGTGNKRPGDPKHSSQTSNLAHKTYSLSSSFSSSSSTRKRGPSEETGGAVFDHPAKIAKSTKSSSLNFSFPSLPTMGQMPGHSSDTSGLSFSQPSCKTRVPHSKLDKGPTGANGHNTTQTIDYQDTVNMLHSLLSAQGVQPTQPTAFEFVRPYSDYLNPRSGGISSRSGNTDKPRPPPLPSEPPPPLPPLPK
Chain of CDK7 (P50613 whole entry): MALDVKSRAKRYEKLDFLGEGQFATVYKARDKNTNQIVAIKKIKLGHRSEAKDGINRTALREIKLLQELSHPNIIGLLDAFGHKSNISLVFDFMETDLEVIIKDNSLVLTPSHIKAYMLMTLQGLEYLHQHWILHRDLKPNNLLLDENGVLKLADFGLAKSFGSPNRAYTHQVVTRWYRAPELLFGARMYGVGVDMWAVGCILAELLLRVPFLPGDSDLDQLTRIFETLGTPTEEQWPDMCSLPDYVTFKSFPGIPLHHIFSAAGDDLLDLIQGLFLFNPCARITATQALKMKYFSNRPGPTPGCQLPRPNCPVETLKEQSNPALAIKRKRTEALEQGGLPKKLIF
Chain of CDK7 (P51946 whole entry partner): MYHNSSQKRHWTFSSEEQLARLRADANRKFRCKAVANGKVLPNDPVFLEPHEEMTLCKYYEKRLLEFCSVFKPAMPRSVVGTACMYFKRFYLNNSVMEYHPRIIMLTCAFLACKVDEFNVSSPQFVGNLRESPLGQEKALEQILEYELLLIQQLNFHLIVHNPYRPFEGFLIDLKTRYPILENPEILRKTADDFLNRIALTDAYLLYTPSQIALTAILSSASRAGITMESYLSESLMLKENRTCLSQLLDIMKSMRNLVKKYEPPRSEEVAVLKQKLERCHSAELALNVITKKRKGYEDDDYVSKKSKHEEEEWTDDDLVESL
Chain of CDK7 (P51948 whole entry partner): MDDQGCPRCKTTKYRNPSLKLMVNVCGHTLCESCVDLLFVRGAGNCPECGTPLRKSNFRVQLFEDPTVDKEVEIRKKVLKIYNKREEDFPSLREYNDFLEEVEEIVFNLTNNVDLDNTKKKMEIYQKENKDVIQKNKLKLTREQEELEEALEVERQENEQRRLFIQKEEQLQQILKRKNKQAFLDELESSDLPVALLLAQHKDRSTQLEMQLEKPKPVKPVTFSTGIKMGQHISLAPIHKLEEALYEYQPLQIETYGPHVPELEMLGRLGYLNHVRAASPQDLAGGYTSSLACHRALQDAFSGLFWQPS

Consider `C=CC(=O)Nc1ccc2c(Nc3n[nH]c4c3CN(C(=O)N[C@H](CN(C)C)C3CCOCC3)C4(C)C)nccc2c1` [Compound 202, (S)-3-((6-acrylamidoisoquinolin-1-yl)amino)-N-(2-(dimethylamino)-1-(tetrahydro-2H-pyran-4-yl)ethyl)-6,6-dimethyl-4,6-dihydropyrrolo[3,4-c]pyrazole-5(1H)-carboxamide], for which the IC50 – broadly, the concentration needed to halve the response being measured – was greater than 1110 nM at CDK2, 69 nM on CDK7 and greater than 10000 nM at CDK9.
On the same counts, the results for `C=CC(=O)Nc1cccc2c(Nc3n[nH]c4c3CN(C(=O)N[C@H](CN(C)C)C3CCOCC3)C4(C)C)nccc12` [Compound 203, (S)-3-((5-acrylamidoisoquinolin-1-yl)amino)-N-(2-(dimethylamino)-1-(tetrahydro-2H-pyran-4-yl)ethyl)-6,6-dimethyl-4,6-dihydropyrrolo[3,4-c]pyrazole-5(1H)-carboxamide] are greater than 10000 nM, 214 nM and greater than 10000 nM.
The like results for `Cc1nc(Nc2n[nH]c3c2CN(C(=O)N[C@H](CN(C)C)C2CCOCC2)C3(C)C)c2sccc2n1` [Compound 201, (S)—N-(2-(dimethylamino)-1-(tetrahydro-2H-pyran-4-yl)ethyl)-6,6-dimethyl-3-((2-methylthieno[3,2-d]pyrimidin-4-yl)amino)-4,6-dihydropyrrolo[3,4-c]pyrazole-5(1H)-carboxamide] were, in that order, greater than 10000 nM, 39.1 nM and greater than 10000 nM.
Take `C=CC(=O)Nc1ccc(Nc2n[nH]c3c2CN(C(=O)N[C@H](CN(C)C)C2CCOCC2)C3(C)C)nc1` [Compound 204, (S)-3-((5-acrylamidopyridin-2-yl)amino)-N-(2-(dimethylamino)-1-(tetrahydro-2H-pyran-4-yl)ethyl)-6,6-dimethyl-4,6-dihydropyrrolo[3,4-c]pyrazole-5(1H)-carboxamide]: the half-maximal inhibitory concentration (IC50) was greater than 10000 nM at CDK2, 407 nM on CDK7 and greater than 10000 nM at CDK9.
Take `C=CC(=O)Nc1ccc(C(=O)Nc2n[nH]c3c2CN(C(=O)N[C@H](CN(C)C)C2CCOCC2)C3(C)C)cc1` [Compound 205, (S)-3-(4-acrylamidobenzamido)-N-(2-(dimethylamino)-1-(tetrahydro-2H-pyran-4-yl)ethyl)-6,6-dimethyl-4,6-dihydropyrrolo[3,4-c]pyrazole-5(1H)-carboxamide]: the IC50 on CDK2 was greater than 370 nM; at CDK7 it was 12.8 nM; at CDK9, 4010 nM.
On the same counts, the results for `Cc1nc(Nc2n[nH]c3c2CN(C(=O)N[C@H](CN(C)C)C2CCOCC2)C3(C)C)c2ccsc2n1` [Compound 200, (S)—N-(2-(dimethylamino)-1-(tetrahydro-2H-pyran-4-yl)ethyl)-6,6-dimethyl-3-((2-methylthieno[2,3-d]pyrimidin-4-yl)amino)-4,6-dihydropyrrolo[3,4-c]pyrazole-5(1H)-carboxamide] are greater than 10000 nM, 18.5 nM and greater than 10000 nM.
On the same counts, the results for `C=CC(=O)Nc1ccc(C(=O)Nc2n[nH]c3c2CN(C(=O)NC2(CN(C)C)CC2)C3(C)C)cc1` [Compound 065, 3-(4-acrylamidobenzamido)-N-(1-((dimethylamino)methyl)cyclopropyl)-6,6-dimethyl-4,6-dihydropyrrolo[3,4-c]pyrazole-5(1H)carboxamide] are greater than 10000 nM, 61.1 nM and greater than 10000 nM.
On the same counts, the results for `C=CC(=O)Nc1ccc(Nc2n[nH]c3c2CN(C(=O)N[C@H](CN(C)C)C2CCOCC2)C3(C)C)cc1` [Compound 209, (S)-3-((4-acrylamidophenyl)amino)-N-(2-(dimethylamino)-1-(tetrahydro-2H-pyran-4-yl)ethyl)-6,6-dimethyl-4,6-dihydropyrrolo[3,4-c]pyrazole-5(1H)-carboxamide] are greater than 10000 nM, 3310 nM and greater than 10000 nM.
Take `C=CC(=O)Nc1cnc(Nc2n[nH]c3c2CN(C(=O)N[C@H](CN(C)C)C2CCOCC2)C3(C)C)nc1` [Compound 206, (S)-3-((5-acrylamidopyrimidin-2-yl)amino)-N-(2-(dimethylamino)-1-(tetrahydro-2H-pyran-4-yl)ethyl)-6,6-dimethyl-4,6-dihydropyrrolo[3,4-c]pyrazole-5(1H)-carboxamide]: the IC50 on CDK2 was greater than 10000 nM; at CDK7 it was 732 nM; at CDK9, greater than 10000 nM.
With `C=CC(=O)Nc1ccc(C(=O)Nc2n[nH]c3c2CN(C(=O)NC(CN(C)C)C2CCOC2)C3(C)C)cc1` (stereo not drawn) [Compound 079, 3-(4-acrylamidobenzamido)-N-(2-(dimethylamino)-1-(tetrahydrofuran-3-yl)ethyl)-6,6-dimethyl-4,6-dihydropyrrolo[3,4-c]pyrazole-5(1H)-carboxamide], the IC50 is greater than 10000 nM on CDK2, 190 nM on CDK7 and 1060 nM at CDK9.
On the same counts, the results for `C=CC(=O)Nc1ccc(C(=O)Nc2n[nH]c3c2CN(C(=O)NC2CN(C)Cc4ccccc42)C3(C)C)cc1` (stereo not drawn) [Compound 207, 3-(4-acrylamidobenzamido)-6,6-dimethyl-N-(2-methyl-1,2,3,4-tetrahydroisoquinolin-4-yl)-4,6-dihydropyrrolo[3,4-c]pyrazole-5(1H)-carboxamide] are 3410 nM, 15.4 nM and greater than 10000 nM.
Turning to `CN(C)C[C@@H](NC(=O)N1Cc2c(Nc3ccnc(C(F)(F)F)n3)n[nH]c2C1(C)C)C1CCOCC1` [Compound 208, (S)—N-(2-(dimethylamino)-1-(tetrahydro-2H-pyran-4-yl)ethyl)-6,6-dimethyl-3-((2-(trifluoromethyl)pyrimidin-4-yl)amino)-4,6-dihydropyrrolo[3,4-c]pyrazole-5(1H)-carboxamide], the IC50 on CDK2 was 4520 nM; on CDK7 it was 10.8 nM; at CDK9 it was greater than 10000 nM.
On the same counts, the results for `C=CC(=O)Nc1ccc(C(=O)Nc2n[nH]c3c2CN(C(=O)N[C@H]2CCCN(C)C2)C3(C)C)cc1` [Compound 210, (S)-3-(4-acrylamidobenzamido)-6,6-dimethyl-N-(1-methylpiperidin-3-yl)-4,6-dihydropyrrolo[3,4-c]pyrazole-5(1H)-carboxamide] are 161 nM, 48.4 nM and 1740 nM.
